Read-outs that look alike come from different tables or passages of the source.

Experimental findings from patent publication US20040234588A1 (priority 2000, published 2004) are described below.

The format of series [1] is physicochemical.
Series [2] concerns Human glioma cell line SF-767. It is filed as cell-based. As to conditions: cells pretreated with chloroquine 30 minutes at 37° C., nanoemulsion/p-PLL/DNA complex, two quantities.
Series [3] is classed as physicochemical. As to conditions: after 38 days at 4° C., HPLC.
The subject of a further series is rat 9L glioma cells. It is filed as cell-based.
For series [4], the system named is human glioma cells 767 SF. Type of series: cell-based. The following applies: for Concentration of B in the cells after 18 hrs incubation: initial B in the media 38 μg.

For the molecule `C[C@@H]1[C@H](O)[C@@H](C)/C=C/C=C/C=C/C=C/C=C/C=C/C=C/[C@H](O[C@@H]2O[C@H](C)[C@@H](O)[C@H](N)[C@@H]2O)C[C@@H]2O[C@](O)(C[C@@H](O)C[C@@H](O)[C@H](O)CC[C@@H](O)C[C@@H](O)CC(=O)O[C@H]1C)C[C@H](O)[C@H]2C(=O)O` [AmpB, Amphotericin B], in series [1] (10 mg AmpB added to 100 mg lipids), the “AmpB incorporated in the submicron emulsion system” value turned out to be 2.33 mg. In series [1] (first fraction, particle size 177 nm), the “incorporated AmpB recovered with the first fraction” value is reported as 72%.
Regarding `CCN(CC)CCCC(C)Nc1ccnc2cc(Cl)ccc12` (stereo not drawn) [chloroquine], the “effect on transfection efficiency (β-galactosidase activity)” value in series [2] was “greatly increased the transfection efficiency”.
As to “cholesteryl 1,12-dicarba-closo-dodecaborane 1-carboxylate [BCH]”, the “initial BCH recovered from the formulation” value in series [3] is given as “about 85%”. The “Concentration of B in the cells after 18 hrs incubation” value with rat 9L glioma cells (High concentration: initial B in the media 16.5 μg/ml) stood at 61 ± 13 μg/g cells; in the series on rat 9L glioma cells (Low concentration: initial B in the media 8.25 μg/ml) it was 50 ± 10 μg/g cells; in series [4] (FBS media), 57.6 ± 15.5 μg/g cells; in series [4] (LPDS media) it was 14.7 ± 3.5 μg/g cells. The “uptake in FBS relative to LPDS” value in series [4] (FBS (lipoproteins present) vs LPDS (no lipoproteins)) was “more than triple”.
